pIC50: −log10 of the molar value. Non-standard residues stand in square brackets, D forms with d. Residues, ends and D or L forms follow the SMILES beside them. Phe(4-(5-CO2H-2-pyrimidyl)) = N[C@@H](Cc1ccc(-c2ncc(C(=O)O)cn2)cc1)C(=O)O; Phe(4-(4-Ac-piperazinyl)) = CC(=O)N1CCN(c2ccc(C[C@H](N)C(=O)O)cc2)CC1; Trp(4-Cl)(βS-Me) = C[C@@H](c1c[nH]c2cccc(Cl)c12)[C@H](N)C(=O)O; dPro(4R-(4-pyridylmethyl)) = O=C(O)[C@H]1C[C@@H](Cc2ccncc2)CN1; Trp(βS-Me,4-F) = C[C@@H](c1c[nH]c2cccc(F)c12)[C@H](N)C(=O)O; Bip(4'-COOH) = N[C@@H](Cc1ccc(-c2ccc(C(=O)O)cc2)cc1)C(=O)O; Ala(1-bicyclo(1.1.1)pentyl) = N[C@@H](CC12CC(C1)C2)C(=O)O; Phe(2-Cl,4-COOH) = N[C@@H](Cc1ccc(C(=O)O)cc1Cl)C(=O)O; 1Nal(3S-Me) = C[C@@H](c1cccc2ccccc12)[C@H](N)C(=O)O; Ala(pyrimidin-5-yl) = N[C@@H](Cc1cncnc1)C(=O)O; Phe(4-COOH) = N[C@@H](Cc1ccc(C(=O)O)cc1)C(=O)O; Pro(cis-4-F) = O=C(O)[C@@H]1C[C@H](F)CN1; Ala(4-THP) = N[C@@H](CC1CCOCC1)C(=O)O; d(αMeD) = C[C@@](N)(CC(=O)O)C(=O)O; 4Pal = N[C@@H](Cc1ccncc1)C(=O)O; aThr = C[C@H](O)[C@H](N)C(=O)O; d(αMeS) = C[C@@](N)(CO)C(=O)O; Cba = N[C@@H](CC1CCC1)C(=O)O; Dab = NCC[C@H](N)C(=O)O; Aib = CC(C)(N)C(=O)O
Biological target: T1, IL-1β (Homo sapiens, UniProt P01584)
T1 construct: purchased BioLegend 579404
Experiment: IL-6 assay in MRC5 cells: inhibition of IL-1β induced IL-6 secretion (AlphaLISA)
Type: cell-based
Conditions: inhibition of IL-1β induced IL-6 secretion in MRC5 cells; read-out: MRC5 IC50
Method in brief: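 Compound was pre-incubated 1 h at ambient temperature with recombinant human IL-1β at 2λ EC80 before adding human lung fibroblast MRC5 cells (3000/well) in EMEM with 0.025% BSA. After overnight culture at 37 °C, 5% CO2, secreted IL-6 in conditioned medium was measured by AlphaLISA; IC50 from 4-parameter logistic fits.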

T1 sequence (P01584 117-269): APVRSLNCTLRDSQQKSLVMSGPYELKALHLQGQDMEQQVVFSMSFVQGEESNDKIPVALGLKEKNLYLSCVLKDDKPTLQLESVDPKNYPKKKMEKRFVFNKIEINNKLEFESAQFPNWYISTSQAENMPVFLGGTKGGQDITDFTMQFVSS

**Q.** With `CC(C)C[C@@H]1NC(=O)[C@@](C)(CO)NC(=O)[C@H](Cc2c[nH]c3ccccc23)NC(=O)[C@H](CO)NC(=O)C(C)(C)NC(=O)[C@H]([C@@H](C)c2c[nH]c3cccc(F)c23)NC(=O)[C@@H]2C[C@H](F)CN2C(=O)CNC(=O)[C@H](Cc2ccc(C(=O)O)cc2)NC(=O)[C@H](Cc2ccncc2)NC(=O)[C@H](Cc2ccc(-c3ccc(C(=O)O)cc3)cc2)NC(=O)[C@H]2C[C@@H](Cc3ccncc3)CN2C(=O)CNC(=O)[C@H](CCN)NC(=O)[C@H](CCC(N)=O)NC1=O` [Example 347] (cyclo([Bip(4'-COOH)][4Pal][Phe(4-COOH)]G[Pro(cis-4-F)][Trp(βS-Me,4-F)][Aib]SW[d(αMeS)]LQ[Dab]G[dPro(4R-(4-pyridylmethyl))])) as the molecule, how does the pIC50 read?
**A.** 10.60

**Q.** How did the pIC50 turn out when `C[C@@H](c1c[nH]c2cccc(F)c12)[C@@H]1NC(=O)[C@@H]2C[C@H](F)CN2C(=O)CNC(=O)[C@H](Cc2ccc(C(=O)O)cc2)NC(=O)[C@H](CC23CC(C2)C3)NC(=O)[C@H](Cc2ccc(-c3ccc(C(=O)O)cc3)cc2)NC(=O)[C@H]2C[C@@H](Cc3ccncc3)CN2C(=O)CNC(=O)[C@H](CCN)NC(=O)[C@H](CCC(N)=O)NC(=O)[C@H](CC2CCC2)NC(=O)[C@@](C)(CC(=O)O)NC(=O)[C@H](Cc2c[nH]c3ccccc23)NC(=O)[C@H](CO)NC(=O)C(C)(C)NC1=O` [Example 348] (cyclo([Bip(4'-COOH)][Ala(1-bicyclo(1.1.1)pentyl)][Phe(4-COOH)]G[Pro(cis-4-F)][Trp(βS-Me,4-F)][Aib]SW[d(αMeD)][Cba]Q[Dab]G[dPro(4R-(4-pyridylmethyl))])) was run?
**A.** 10.74

**Q.** How did the pIC50 turn out when `CC(C)C[C@@H]1NC(=O)[C@@](C)(CC(=O)O)NC(=O)[C@H](Cc2c[nH]c3ccccc23)NC(=O)[C@H](CO)NC(=O)C(C)(C)NC(=O)[C@H]([C@@H](C)c2c[nH]c3cccc(F)c23)NC(=O)[C@@H]2C[C@H](F)CN2C(=O)CNC(=O)[C@H](Cc2ccc(C(=O)O)cc2)NC(=O)[C@H](CC23CC(C2)C3)NC(=O)[C@H](Cc2ccc(-c3ccc(C(=O)O)cc3)cc2)NC(=O)[C@H]2C[C@@H](Cc3ccncc3)CN2C(=O)CNC(=O)[C@H](CCN)NC(=O)[C@H](CCC(N)=O)NC1=O` [Example 349] (cyclo([Bip(4'-COOH)][Ala(1-bicyclo(1.1.1)pentyl)][Phe(4-COOH)]G[Pro(cis-4-F)][Trp(βS-Me,4-F)][Aib]SW[d(αMeD)]LQ[Dab]G[dPro(4R-(4-pyridylmethyl))])) was run?
**A.** 10.77

**Q.** How did the pIC50 turn out when `CC(=O)N1CCN(c2ccc(C[C@@H]3NC(=O)[C@H]4C[C@@H](Cc5ccncc5)CN4C(=O)CNC(=O)[C@H](CCN)NC(=O)[C@H](CCC(N)=O)NC(=O)[C@H](Cc4cncnc4)NC(=O)[C@@](C)(CO)NC(=O)[C@H](Cc4c[nH]c5ccccc45)NC(=O)[C@H](CO)NC(=O)C(C)(C)NC(=O)[C@H]([C@@H](C)c4c[nH]c5cccc(F)c45)NC(=O)[C@@H]4C[C@H](F)CN4C(=O)CNC(=O)[C@H](Cc4ccc(C(=O)O)cc4)NC(=O)[C@H](Cc4ccncc4)NC3=O)cc2)CC1` [Example 350] (cyclo([Phe(4-(4-Ac-piperazinyl))][4Pal][Phe(4-COOH)]G[Pro(cis-4-F)][Trp(βS-Me,4-F)][Aib]SW[d(αMeS)][Ala(pyrimidin-5-yl)]Q[Dab]G[dPro(4R-(4-pyridylmethyl))])) was run?
**A.** 10.70

**Q.** How did the pIC50 turn out when `C[C@@H](c1c[nH]c2cccc(F)c12)[C@@H]1NC(=O)[C@@H]2C[C@H](F)CN2C(=O)CNC(=O)[C@H](Cc2ccc(C(=O)O)cc2)NC(=O)[C@H](Cc2ccncc2)NC(=O)[C@H](Cc2ccc(-c3ncc(C(=O)O)cn3)cc2)NC(=O)[C@H]2C[C@@H](Cc3ccncc3)CN2C(=O)CNC(=O)[C@H](CCN)NC(=O)[C@H](CCC(N)=O)NC(=O)[C@H](CC2CCOCC2)NC(=O)[C@@](C)(CC(=O)O)NC(=O)[C@H](Cc2c[nH]c3ccccc23)NC(=O)[C@H](CO)NC(=O)C(C)(C)NC1=O` [Example 351] (cyclo([Phe(4-(5-CO2H-2-pyrimidyl))][4Pal][Phe(4-COOH)]G[Pro(cis-4-F)][Trp(βS-Me,4-F)][Aib]SW[d(αMeD)][Ala(4-THP)]Q[Dab]G[dPro(4R-(4-pyridylmethyl))])) was run?
**A.** 10.80

**Q.** With `C[C@H](O)[C@@H]1NC(=O)C(C)(C)NC(=O)[C@H]([C@@H](C)c2c[nH]c3cccc(F)c23)NC(=O)[C@@H]2C[C@H](F)CN2C(=O)CNC(=O)[C@H](Cc2ccc(C(=O)O)cc2)NC(=O)[C@H](Cc2ccncc2)NC(=O)[C@H](Cc2ccc(-c3ccc(C(=O)O)cc3)cc2)NC(=O)[C@H]2C[C@@H](Cc3ccncc3)CN2C(=O)CNC(=O)[C@H](CCN)NC(=O)[C@H](CCC(N)=O)NC(=O)[C@H]([C@H](C)O)NC(=O)[C@@](C)(CO)NC(=O)[C@H](Cc2c[nH]c3ccccc23)NC1=O` [Example 352] (cyclo([Bip(4'-COOH)][4Pal][Phe(4-COOH)]G[Pro(cis-4-F)][Trp(βS-Me,4-F)][Aib][aThr]W[d(αMeS)][aThr]Q[Dab]G[dPro(4R-(4-pyridylmethyl))])) as the molecule, how does the pIC50 read?
**A.** 10.64

**Q.** How did the pIC50 turn out when `C[C@H](O)[C@@H]1NC(=O)C(C)(C)NC(=O)[C@H]([C@@H](C)c2c[nH]c3cccc(F)c23)NC(=O)[C@@H]2C[C@H](F)CN2C(=O)CNC(=O)[C@H](Cc2ccc(C(=O)O)cc2)NC(=O)[C@H](Cc2ccncc2)NC(=O)[C@H](Cc2ccc(-c3ccc(C(=O)O)cc3)cc2)NC(=O)[C@H]2C[C@@H](Cc3ccncc3)CN2C(=O)CNC(=O)[C@H](CCN)NC(=O)[C@H](CCC(N)=O)NC(=O)[C@H](CC2CCOCC2)NC(=O)[C@@](C)(CC(=O)O)NC(=O)[C@H](Cc2c[nH]c3ccccc23)NC1=O` [Example 353] (cyclo([Bip(4'-COOH)][4Pal][Phe(4-COOH)]G[Pro(cis-4-F)][Trp(βS-Me,4-F)][Aib][aThr]W[d(αMeD)][Ala(4-THP)]Q[Dab]G[dPro(4R-(4-pyridylmethyl))])) was run?
**A.** 10.77

**Q.** `C[C@H](O)[C@@H]1NC(=O)[C@@](C)(CC(=O)O)NC(=O)[C@H](Cc2c[nH]c3ccccc23)NC(=O)[C@H](CO)NC(=O)C(C)(C)NC(=O)[C@H]([C@@H](C)c2cccc3ccccc23)NC(=O)[C@@H]2C[C@H](F)CN2C(=O)CNC(=O)[C@H](Cc2ccc(C(=O)O)cc2Cl)NC(=O)[C@H](Cc2ccncc2)NC(=O)[C@H](Cc2ccc(-c3ccc(C(=O)O)cc3)cc2)NC(=O)[C@H]2C[C@@H](Cc3ccncc3)CN2C(=O)CNC(=O)[C@H](CCN)NC(=O)[C@H](CCC(N)=O)NC1=O` [Example 354] (cyclo([Bip(4'-COOH)][4Pal][Phe(2-Cl,4-COOH)]G[Pro(cis-4-F)][1Nal(3S-Me)][Aib]SW[d(αMeD)][aThr]Q[Dab]G[dPro(4R-(4-pyridylmethyl))])) was tested. Which pIC50 did it give?
**A.** 10.85

**Q.** How did the pIC50 turn out when `C[C@H](O)[C@@H]1NC(=O)[C@@](C)(CC(=O)O)NC(=O)[C@H](Cc2c[nH]c3ccccc23)NC(=O)[C@H](CO)NC(=O)C(C)(C)NC(=O)[C@H]([C@@H](C)c2c[nH]c3cccc(Cl)c23)NC(=O)[C@@H]2C[C@H](F)CN2C(=O)CNC(=O)[C@H](Cc2ccc(C(=O)O)cc2Cl)NC(=O)[C@H](Cc2ccncc2)NC(=O)[C@H](Cc2ccc(-c3ccc(C(=O)O)cc3)cc2)NC(=O)[C@H]2C[C@@H](Cc3ccncc3)CN2C(=O)CNC(=O)[C@H](CCN)NC(=O)[C@H](CCC(N)=O)NC1=O` [Example 355] (cyclo([Bip(4'-COOH)][4Pal][Phe(2-Cl,4-COOH)]G[Pro(cis-4-F)][Trp(4-Cl)(βS-Me)][Aib]SW[d(αMeD)][aThr]Q[Dab]G[dPro(4R-(4-pyridylmethyl))])) was run?
**A.** 10.89

**Q.** `C[C@H](O)[C@@H]1NC(=O)[C@@](C)(CC(=O)O)NC(=O)[C@H](Cc2c[nH]c3ccccc23)NC(=O)[C@H](CO)NC(=O)C(C)(C)NC(=O)[C@H]([C@@H](C)c2c[nH]c3cccc(F)c23)NC(=O)[C@@H]2C[C@H](F)CN2C(=O)CNC(=O)[C@H](Cc2ccc(C(=O)O)cc2Cl)NC(=O)[C@H](Cc2ccncc2)NC(=O)[C@H](Cc2ccc(-c3ccc(C(=O)O)cc3)cc2)NC(=O)[C@H]2C[C@@H](Cc3ccncc3)CN2C(=O)CNC(=O)[C@H](CCN)NC(=O)[C@H](CCC(N)=O)NC1=O` [Example 356] (cyclo([Bip(4'-COOH)][4Pal][Phe(2-Cl,4-COOH)]G[Pro(cis-4-F)][Trp(βS-Me,4-F)][Aib]SW[d(αMeD)][aThr]Q[Dab]G[dPro(4R-(4-pyridylmethyl))])) was tested. Which pIC50 did it give?
**A.** 10.96

**Q.** `C[C@H](O)[C@@H]1NC(=O)[C@@](C)(CC(=O)O)NC(=O)[C@H](Cc2c[nH]c3ccccc23)NC(=O)[C@H](CO)NC(=O)C(C)(C)NC(=O)[C@H]([C@@H](C)c2cccc3ccccc23)NC(=O)[C@@H]2C[C@H](F)CN2C(=O)CNC(=O)[C@H](Cc2ccc(C(=O)O)cc2)NC(=O)[C@H](Cc2ccncc2)NC(=O)[C@H](Cc2ccc(-c3ccc(C(=O)O)cc3)cc2)NC(=O)[C@H]2C[C@@H](Cc3ccncc3)CN2C(=O)CNC(=O)[C@H](CCN)NC(=O)[C@H](CCC(N)=O)NC1=O` [Example 357] (cyclo([Bip(4'-COOH)][4Pal][Phe(4-COOH)]G[Pro(cis-4-F)][1Nal(3S-Me)][Aib]SW[d(αMeD)][aThr]Q[Dab]G[dPro(4R-(4-pyridylmethyl))])) was tested. Which pIC50 did it give?
**A.** 10.77

**Q.** How did the pIC50 turn out when `C[C@H](O)[C@@H]1NC(=O)[C@@](C)(CC(=O)O)NC(=O)[C@H](Cc2c[nH]c3ccccc23)NC(=O)[C@H](CO)NC(=O)C(C)(C)NC(=O)[C@H]([C@@H](C)c2c[nH]c3cccc(Cl)c23)NC(=O)[C@@H]2C[C@H](F)CN2C(=O)CNC(=O)[C@H](Cc2ccc(C(=O)O)cc2)NC(=O)[C@H](Cc2ccncc2)NC(=O)[C@H](Cc2ccc(-c3ccc(C(=O)O)cc3)cc2)NC(=O)[C@H]2C[C@@H](Cc3ccncc3)CN2C(=O)CNC(=O)[C@H](CCN)NC(=O)[C@H](CCC(N)=O)NC1=O` [Example 358] (cyclo([Bip(4'-COOH)][4Pal][Phe(4-COOH)]G[Pro(cis-4-F)][Trp(4-Cl)(βS-Me)][Aib]SW[d(αMeD)][aThr]Q[Dab]G[dPro(4R-(4-pyridylmethyl))])) was run?
**A.** 10.89

Reference: patent US20260242419A1, “A CYCLIC PEPTIDE FOR TRAPPING INTERLEUKIN-1 BETA” (Merck Sharp & Dohme LLC, priority 2023, published 2026)
